Columns and labels:
[1] = tested on: Ci; experiment: Ci induction in cl-8 cells with or without HH-N conditioned medium, Western blot; type: cell-based, Drosophila
Method: cl-8 cells were cultured as described in Van Leeuwen, F., et al. Nature, 368:342-344, 1994. Culture and transfection of S2 cells were performed as described in Porter, J. A. et al. Cell, 86: 21-34, 1996. The conditioned medium was made by culturing transfected S2 cells in cl-8 medium, and induced by adding CUSO4, to the final concentration of 0.5 Mm overnight. The conditioned medium was harvested the next day, centrifuged to remove S2 cells and the supernatant was used. To make lysate from cl-8 cells, cl-8 cells were washed, harvested in cold phosphate buffered saline (PBS), and then resuspended in NP-40 lysis buffer (150 Mm NaCl, 50 Mm Tris pH8, 1% NP-40, 1 Mm EDTA, 20 μg/ml aprotinin, 20 μg/ml leupeptin, 1 μg/ml pepstatin A, 2.5 μg/ml antipain, 100 μM PMSF, 50 mM NaF, 5 mM Na2P4O7). Cells were lysed at 4° C. for 10 minutes, then centrifuged at 13,000×g for 10 minutes. The supernatant was saved for Western blot analysis.
SDS-PAGE and protein transfer were carried out by standard methods. The primary antibodies used were: rat monoclonal anti-Ci 2Al 1:20 dilution; mouse monoclonal anti-Ptc 1:1000 dilution; mouse monoclonal anti-actin 1:2500. Secondary antibodies were from Jackson Immunologicals. The filters were developed using SuperSignal from Pierce.
Tautomycin (TAU) and okadaic acid (OA) were purchased from Calbiochem and dissolved in dimethyl sulfoxide (DMSO) to different concentrations. The phosphatase inhibitors were mixed with conditioned medium and the concentration of DMSO was adjusted to 0.2% for each sample. cl-8 cells were incubated with conditioned medium and phosphatase inhibitor mixture for 4 hours and lysed for analysis.

[2] = tested on: ShhRE; experiment: EMSA of Shh-induced protein binding to radiolabeled ShhRE, P19 nuclear extracts; type: cell-based, mouse; conditions: 5 nM, 1.0 nM Shh-N, 24 hours
Method: Methods described in Example 6 were used in addition to the following protocols. P19 cells were treated with or without Shh-N for 24 hours and nuclear extracts were obtained and used in an electrophoretic mobility shift assay (EMSA) with radiolabeled ShhRE. The following oligos were used as competitors or probes in these assays; WT ShhRE—GTTCTACATAATGCGCCG—SEQ ID NO:1; mShhRE—GTTCTACgTgATGCGCCG—SEQ ID NO:3; GliRE—[…]—. SEQ ID NO:4, Different amounts of unlabeled Gli response element (GliRE) (FIG. 5C, lane 3, 100X; lane 4, 50X; lane 5, 25X; and lane 6, 10X) or ShhRE (lane 7; 100X, lane 8; 50X and lane 9; 10X) was used as a competitor at the indicated molar excess.
In EMSA, radiolabeled probe was incubated with the nuclear extracts (10 μg) along with 4 μg poly dG-dC in a binding reaction containing 10 mM Tris pH 7.5, 50 mM NaCl, 1 mM EDTA, 1 mM DTT, 0.1 mg/ml BSA, and 5% glycerol. Later the mixture was loaded onto a 5% polyacrylamide gel and the retarded complexes were separated-in 1× TBE buffer and analyzed using autoradiography.
P-19 cells were treated with phosphatase inhibitors to study the endogenous levels of COUP-TFII mRNA. […] Total RVA was isolated from these cells and 20 μg of RNA was used in a RNase protection assay as described above in Example 6. A region of the murine Cyclophilin A cDNA was used to generate riboprobe and was used as an internal control. P19 cells were co-treated with (FIG. 7C, lane 2, 4, 6, and 7) or without (FIG. 7C, lane 1, 3, and 5) 1.0 nM Shh-N and 5 nM OA (lane 3 and 4), 0.5 nM CyA (FIG. 7C, lane 5 & 6) or 5 nm NoA (FIG. 7C, lane 9). Cells were harvested after 24 hours of treatment and the nuclear extract was obtained for the binding reactions. Extracts were subjected to an EMSA as described earlier.

[3] = tested on: GliRE; experiment: GliRE-CAT reporter in P19 cells cotransfected with Shh expression plasmid; type: cell-based, mouse; conditions: 5 nM for 14 hours
Method: P19 cells were cotransfected with pBKCMV-Shh expression plasmid and a GliRECAT reporter plasmid (1 μg)as described earlier. Krishnan, V., et al., Mol. Endo., 11: 1458-1466, 1997. Cells cotransfected with pBKCMY-Shh or pBKCMV plasmid (200 ng) were treated with or without 5 nM OA for 14 hours and reporter gene activity was assayed as described earlier. Gorman, C. M., et al., Mol. and Cell. Biology, 2:1044-1051, 1982. Results are expressed as mean±sd from three separate experiments.

C=C1[C@@H](O)[C@@H]2O[C@]3(CC[C@H](/C=C/[C@@H](C)[C@@H]4CC(C)=C[C@@]5(O[C@H](C[C@@](C)(O)C(=O)O)CC[C@H]5O)O4)O3)CC[C@H]2O[C@@H]1[C@@H](O)C[C@H](C)[C@H]1O[C@@]2(CCCCO2)CC[C@H]1C [OA, okadaic acid]
Ci level ([1]; 1 nM, absence of HH signaling): significantly reduced
Ci mobility form (phosphorylation) ([1]; 1 nM, absence of HH signaling): shifted Ci to the low mobility form
Ci detection ([1]; 5 to 10 nM): completely undetectable
Ci level and mobility ([1]; presence of HH): overcame the induction effect of HH
Shh-induced binding to radiolabeled ShhRE [2]: abolished
Shh-enhanced GliRE-CAT reporter activity [3]: sensitive
